# Molecular target: T1, human 5-HT7 receptor (Homo sapiens, UniProt P34969)
# T1 construct: expressed in transfected cells; host or cells: CHO cells
# Test: 5-HT7 Receptor Binding Assay
# Conditions: membranes of CHO cells expressing human 5-HT7 receptor; 1 nM 3H-5-carboxamidotryptamine; 25° C., 60 minutes
# Method: 5-HT7 Receptor Binding Assay
# Membranes are prepared for binding using the human 5-HT7 receptor expressed in CHO cells. Cells are collected and ruptured using a dounce homogenizer. The cells are spun at 18000× g for 10 minutes and the pellet is resuspended in assay buffer, frozen in liquid nitrogen and kept at −80° C. until the day of the assay.
# A total of 30 ug protein is used per well. The assay is carried out in 96-deep-well plates. The assay buffer is 50 mM HEPES. The membrane preparation is incubated at 25° C. for 60 minutes with 0.1 nM to 1000 nM test compound and 1 nM ^3H-5-carboxamidotryptamine. 10 uM serotonin is used as blocking agent to determine non-specific binding. The reaction is terminated by the addition of 1 ml of ice cold 5OmM HEPES buffer and rapid filtration through a Brandel Cell Harvester using Whatman GF/B filters. The filter pads are counted in an LKB Trilux liquid scintillation counter. IC50 values are determined using non-linear regression by Exel-fit.
# T1 sequence (P34969 whole entry): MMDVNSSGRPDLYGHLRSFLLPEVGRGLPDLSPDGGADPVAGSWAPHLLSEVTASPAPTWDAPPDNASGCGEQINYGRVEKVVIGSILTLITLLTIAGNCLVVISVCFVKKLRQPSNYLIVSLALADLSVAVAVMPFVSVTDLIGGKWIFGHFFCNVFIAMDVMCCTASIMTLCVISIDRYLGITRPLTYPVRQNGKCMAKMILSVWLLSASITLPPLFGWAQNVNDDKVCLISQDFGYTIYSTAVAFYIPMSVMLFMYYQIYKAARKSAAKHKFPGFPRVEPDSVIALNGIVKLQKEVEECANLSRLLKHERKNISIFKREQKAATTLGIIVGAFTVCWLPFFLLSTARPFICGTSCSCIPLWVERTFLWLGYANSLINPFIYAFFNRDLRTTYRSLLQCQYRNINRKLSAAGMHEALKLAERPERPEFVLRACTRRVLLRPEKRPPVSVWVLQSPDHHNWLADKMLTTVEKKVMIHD
row,Compound,IC50 [nM]
1,"Cc1ccc(CCNc2nc(N)nc(N[C@@H](C)c3ccccc3)n2)cc1 [Compound 72, N^2-[2-(4-Methylphenyl)ethyl]-N^4-[(1S)-1-phenylethyl]-1,3,5-triazine-2,4,6-triamine]",≤ 50
2,"C[C@H](Nc1nc(N)nc(NCCc2cccc(O)c2)n1)c1ccccc1 [Compound 73, N^2-[2-(3-Hydroxyphenyl)ethyl]-N^4-[(1S)-1-phenylethyl]-1,3,5-triazine-2,4,6-triamine]",≤ 50
3,"C[C@H](Nc1nc(N)nc(NCCc2ccc(F)cc2)n1)c1ccc([N+](=O)[O-])cc1 [Compound 74, N^2-[2-(4-Fluorophenyl)ethyl]-N^4-[(1S)-1-(4-nitrophenyl)ethyl]-1,3,5-triazine-2,4,6-triamine]",≤ 50
4,"C[C@H](Nc1nc(N)nc(NCCc2ccc(O)cc2)n1)c1ccc([N+](=O)[O-])cc1 [Compound 75, N^2-[2-(4-Hydroxyphenyl)ethyl]-N^4-[(1S)-1-(4-nitrophenyl)ethyl]-1,3,5-triazine-2,4,6-triamine]",≤ 50
5,"C[C@H](Nc1nc(N)nc(NCCc2ccccc2F)n1)c1ccc([N+](=O)[O-])cc1 [Compound 76, N^2-[2-(2-Fluorophenyl)ethyl]-N^4-[(1S)-1-(4-nitrophenyl)ethyl]-1,3,5-triazine-2,4,6-triamine]",≤ 50
6,"COc1cccc(CCNc2nc(N)nc(N[C@@H](C)c3ccc([N+](=O)[O-])cc3)n2)c1 [Compound 77, N^2-[2-(3-Methoxyphenyl)ethyl]-N^4-[(1S)-1-(4-nitrophenyl)ethyl]-1,3,5-triazine-2,4,6-triamine]",≤ 50
7,"C[C@H](Nc1nc(N)nc(NCCc2ccc(N)cc2)n1)c1ccc([N+](=O)[O-])cc1 [Compound 78, N^2-[2-(4-Aminophenyl)ethyl]-N^4-[(1S)-1-(4-nitrophenyl)ethyl]-1,3,5-triazine-2,4,6-triamine]",≤ 50
8,"Cc1ccc(CCNc2nc(N)nc(N[C@@H](C)c3ccc([N+](=O)[O-])cc3)n2)cc1 [Compound 79, N^2-[2-(4-Methylphenyl)ethyl]-N^4-[(1S)-1-(4-nitrophenyl)ethyl]-1,3,5-triazine-2,4,6-triamine]",≤ 50
9,"COc1cc(CCNc2nc(N)nc(N[C@@H](C)c3ccc([N+](=O)[O-])cc3)n2)ccc1O [Compound 80, N^2-[2-(4-Hydroxy-3-methoxyphenyl)ethyl]-N^4-[(1S)-1-(4-nitrophenyl)ethyl]-1,3,5-triazine-2,4,6-triamine]",≤ 50
10,"C[C@H](Nc1cc(NCCOc2ccc(F)cc2)ncn1)c1ccccc1 [Example 16, N^4-[2-(4-Fluorophenoxy)ethyl]-N^6-[(1S)-1-phenylethyl]pyrimidine-4,6-diamine]",≤ 50
11,"C[C@H](Nc1nc(N)nc(NCCc2ccc(F)cc2)n1)c1ccc(F)cc1 [Example 17, N^2-[(1S)-1-(4-Fluorophenyl)ethyl]-N^4-[2-(4-fluorophenyl)ethyl]-1,3,5-triazine-2,4,6-triamine]",≤ 50
12,"C[C@H](Nc1nc(N)nc(NCCc2ccccn2)n1)c1ccc(F)cc1 [Example 18, N^2-[(1S)-1-(4-Fluorophenyl)ethyl]-N^4-[2-(2-pyridinyl)ethyl]-1,3,5-triazine-2,4,6-triamine]",≤ 50
13,"Nc1nc(NCCc2ccccc2)nc(NCc2ccccc2Cl)n1 [N^2-(2-Chlorophenylmethyl)-N^4-(2-phenylethyl)-1,3,5-triazine-2,4,6-triamine]",≤ 50
14,"c1ccc(CNc2ccnc(NCCOc3ccccc3)n2)cc1 [N^2-(2-Phenoxyethyl)-N^4-(phenylmethyl)pyrimidine-2,4-diamine]",≤ 50
15,"FC(F)(F)c1cccc(CNc2ccnc(NCCOc3ccccc3)n2)c1 [N^2-(2-Phenoxyethyl)-N^4-[3-(trifluoromethyl)phenylmethyl]pyrimidine-2,4-diamine]",≤ 50
16,"FC(F)(F)c1ccc(CNc2ccnc(NCCOc3ccccc3)n2)cc1 [N^2-(2-Phenoxyethyl)-N^4-[4-(trifluoromethyl)phenylmethyl]pyrimidine-2,4-diamine]",101 to 200
17,"C[C@@H](Nc1ccnc(NCCOc2ccccc2)n1)c1ccccc1 [N^2-(2-Phenoxyethyl)-N^4-[(1R)-1-phenylethyl]pyrimidine-2,4-diamine]",101 to 200

row,Compound,IC50 [nM]
1,"CC[C@@H](Nc1ccnc(NCCOc2ccccc2)n1)c1ccccc1 [N^2-(2-Phenoxyethyl)-N^4-[(1R)-1-phenylpropyl]pyrimidine-2,4-diamine]",101 to 200
2,"C[C@H](Nc1ccnc(NCCOc2ccccc2)n1)c1ccccc1 [N^2-(2-Phenoxyethyl)-N^4-[(1S)-1-phenylethyl]pyrimidine-2,4-diamine]",≤ 50
3,"CC[C@H](Nc1ccnc(NCCOc2ccccc2)n1)c1ccccc1 [N^2-(2-Phenoxyethyl)-N^4-[(1S)-1-phenylpropyl]pyrimidine-2,4-diamine]",≤ 50
4,"CC(Nc1ccnc(NCCSc2ccccc2)n1)c1ccccc1 (stereo not drawn) [N^2-(2-Phenthioethyl)-N^4-(1-phenylethyl)pyrimidine-2,4-diamine]",51 to 100
5,"c1ccc(CCNc2nccc(NCc3ccncc3)n2)cc1 [N^2-(2-Phenylethyl)-N^4-(4-pyridinylmethyl)pyrimidine-2,4-diamine]",101 to 200
6,"c1ccc(CCNc2nccc(NCc3ccccc3)n2)cc1 [N^2-(2-Phenylethyl)-N^4-(phenylmethyl)pyrimidine-2,4-diamine]",≤ 50
7,"FC(F)(F)c1cccc(CNc2ccnc(NCCc3ccccc3)n2)c1 [N^2-(2-Phenylethyl)-N^4-[3-(trifluoromethyl)phenylmethyl]pyrimidine-2,4-diamine]",≤ 50
8,"FC(F)(F)c1ccc(CNc2ccnc(NCCc3ccccc3)n2)cc1 [N^2-(2-Phenylethyl)-N^4-[4-(trifluoromethyl)phenylmethyl]pyrimidine-2,4-diamine]",101 to 200
9,"C[C@@H](Nc1ccnc(NCCc2ccccc2)n1)c1ccccc1 [N^2-(2-Phenylethyl)-N^4-[(1R)-1-phenylethyl]pyrimidine-2,4-diamine]",101 to 200
10,"CC[C@@H](Nc1ccnc(NCCc2ccccc2)n1)c1ccccc1 [N^2-(2-Phenylethyl)-N^4-[(1R)-1-phenylpropyl]pyrimidine-2,4-diamine]",51 to 100
11,"CC[C@H](Nc1ccnc(NCCc2ccccc2)n1)c1ccccc1 [N^2-(2-Phenylethyl)-N^4-[(1S)-1-phenylpropyl]pyrimidine-2,4-diamine]",≤ 50
12,"CC(Nc1ccnc(N(C)CCc2ccccc2)n1)c1ccccc1 (stereo not drawn) [N^2-(Methyl)-N^2-(2-phenylethyl)-N^4-(1-phenylethyl)pyrimidine-2,4-diamine]",≤ 50
13,"CC(Nc1ccnc(NCCc2ccccc2F)n1)c1ccccc1 (stereo not drawn) [N^2-[2-(2-Fluorophenyl)ethyl]-N^4-(1-phenylethyl)pyrimidine-2,4-diamine]",≤ 50
14,"COc1ccccc1CCNc1nc(C)cc(N[C@@H](C)c2ccccc2)n1 [N^2-[2-(2-Methoxyphenyl)ethyl]-6-methyl-N^4-[(1S)-1-phenylethyl]pyrimidine-2,4-diamine]",≤ 50
15,"COc1ccccc1CCNc1nccc(NC(C)c2ccccc2)n1 (stereo not drawn) [N^2-[2-(2-Methoxyphenyl)ethyl]-N^4-(1-phenylethyl)pyrimidine-2,4-diamine]",51 to 100
16,"CC(Nc1ccnc(NCCc2ccc(Cl)c(Cl)c2)n1)c1ccccc1 (stereo not drawn) [N^2-[2-(3,4-Dichlorophenyl)ethyl]-N^4-(1-phenylethyl)pyrimidine-2,4-diamine]",51 to 100

# Source: patent US6630469B2, “5-HT7 receptor antagonists” (Bristol-Myers Squibb Company, priority 2000, dated 2003)
